Patent US20240174624A1, “CHIRAL N-(1,3,4-OXADIAZOLE-2-YL)PHENYL CARBOXYLIC ACID AMIDES AND THEIR USE AS HERBICIDES” (Bayer Aktiengesellschaft, priority 2021, published 2024)

What was measured:
SETVI [1] = assay: Post-emergence herbicidal action; type: in vivo, Setaria viridis; details: for Herbicidal action against SETVI: 5 g a.i./ha, comparative experiment; for Post-emergence action against SETVI: assessed after about 3 weeks
Experimental: (§1) Seeds of monocotyledonous and dicotyledonous weed and crop plants are laid out in sandy loam soil in wood-fibre pots, covered with soil and cultivated in a greenhouse under good growth conditions. 2 to 3 weeks after sowing, the test plants are treated at the one-leaf stage. The compounds of the invention, formulated in the form of wettable powders (WP) or as emulsion concentrates (EC), are then sprayed onto the green parts of the plants in the form of an aqueous suspension or emulsion at a water application rate equating to 600 to 800 l/ha, with addition of 0.2% wetting agent. After the test plants have been left to stand in the greenhouse under optimal growth conditions for about 3 weeks, the action of the preparations is assessed visually in comparison to untreated controls (herbicidal action in percent (%): 100% activity=the plants have died, 0% activity=like control plants). […] The tables below illustrate, in an illustrative manner, the post-emergence herbicidal action of the compounds of the invention, the herbicidal activity being stated in percent. In the experiments that follow, the herbicidal action of the compounds of the invention and that of the corresponding known racemic compounds closest from WO2012126932 and WO2018202535 were compared under the above-specified conditions by the pre-emergence and post-emergence method. The example numbers given in the tables relate to the compounds disclosed in the respective documents.

ECHCG [2] = assay: Post-emergence herbicidal action; type: in vivo, Echinochloa crus-galli; details: for Post-emergence action against ECHCG: assessed after about 3 weeks
Experimental: as §1

GLXMA = assay: Post-emergence damage to crop plants; type: in vivo, Glycine max; details: 5 g a.i./ha, comparative experiment
Experimental: as §1, with “The example numbers given in the tables relate to the compounds disclosed in the respective documents.” left out

ZEAMX = assay: Pre-emergence damage to crop plants; type: in vivo, Zea mays; details: comparative experiment
Source text: (§2) Seeds of monocotyledonous and dicotyledonous weed plants and crop plants are laid out in sandy loam soil in wood-fibre pots and covered with soil. The compounds of the invention, formulated in the form of wettable powders (WP) or as emulsion concentrates (EC), are then applied to the surface of the covering soil in the form of an aqueous suspension or emulsion at a water application rate equivalent to 600 to 800 l/ha, with addition of 0.2% wetting agent. After the treatment, the pots are placed in a greenhouse and kept under good growth conditions for the trial plants. The damage to the test plants is scored visually after a test period of 3 weeks by comparison with untreated controls (herbicidal activity in percent (%): 100% activity=the plants have died, 0% activity=like control plants). […] The tables below illustrate, in an illustrative manner, the post-emergence herbicidal action of the compounds of the invention, the herbicidal activity being stated in percent. In the experiments that follow, the herbicidal action of the compounds of the invention and that of the corresponding known racemic compounds closest from WO2012126932 and WO2018202535 were compared under the above-specified conditions by the pre-emergence and post-emergence method. The example numbers given in the tables relate to the compounds disclosed in the respective documents.

VIOTR [3] = assay: Post-emergence herbicidal action; type: in vivo, Viola tricolor; details: for Herbicidal action against VIOTR: comparative experiment; for Post-emergence action against VIOTR: assessed after about 3 weeks
Experimental: as §1

BRSNW = assay: Pre-emergence damage to crop plants; type: in vivo, Brassica napus; details: 20 g a.i./ha, comparative experiment
Source text: as §2

TRZAS = assay: Post-emergence damage to crop plants; type: in vivo, Triticum aestiva; details: 5 g a.i./ha, comparative experiment
Experimental: as §1

ALOMY = assay: Pre-emergence herbicidal action; type: in vivo, Alopecurus myosuroides
Source text: as §2

AVEFA = assay: Pre-emergence herbicidal action; type: in vivo, Avena fatua
Source text: as §2

PHBPU [4] = assay: Pre-emergence herbicidal action; type: in vivo, Pharbitis purpurea; details: 80 g/ha, scored after 3 weeks
Source text: as §2, with “percent.” for “percent. In the experiments that follow, the herbicidal action of the compounds of the invention and that of the corresponding known racemic compounds closest from WO2012126932 and WO2018202535 were compared under the above-specified conditions by the pre-emergence and post-emergence method. The example numbers given in the tables relate to the compounds disclosed in the respective documents.”

STEME [5] = assay: Post-emergence herbicidal action; type: in vivo, Stellaria media; details: 5 g a.i./ha, comparative experiment
Experimental: as §1

VIOTR [6] = assay: Pre-emergence herbicidal action; type: in vivo, Viola tricolor; details: 80 g/ha, scored after 3 weeks
Source text: as §2, with “percent.” for “percent. In the experiments that follow, the herbicidal action of the compounds of the invention and that of the corresponding known racemic compounds closest from WO2012126932 and WO2018202535 were compared under the above-specified conditions by the pre-emergence and post-emergence method. The example numbers given in the tables relate to the compounds disclosed in the respective documents.”

AMARE [7] = assay: Post-emergence herbicidal action; type: in vivo, Amaranthus retroflexus; details: assessed after about 3 weeks
Experimental: as §1, with “percent.” for “percent. In the experiments that follow, the herbicidal action of the compounds of the invention and that of the corresponding known racemic compounds closest from WO2012126932 and WO2018202535 were compared under the above-specified conditions by the pre-emergence and post-emergence method. The example numbers given in the tables relate to the compounds disclosed in the respective documents.”

PHBPU [8] = assay: Post-emergence herbicidal action; type: in vivo, Pharbitis purpurea; details: 20 g/ha, assessed after about 3 weeks
Experimental: as §1, with “percent.” for “percent. In the experiments that follow, the herbicidal action of the compounds of the invention and that of the corresponding known racemic compounds closest from WO2012126932 and WO2018202535 were compared under the above-specified conditions by the pre-emergence and post-emergence method. The example numbers given in the tables relate to the compounds disclosed in the respective documents.”

SETVI [9] = assay: Pre-emergence herbicidal action; type: in vivo, Setaria viridis; details: for Pre-emergence action against SETVI: scored after 3 weeks
Source text: as §2

AMARE [10] = assay: Pre-emergence herbicidal action; type: in vivo, Amaranthus retroflexus; details: scored after 3 weeks
Source text: as §2, with “percent.” for “percent. In the experiments that follow, the herbicidal action of the compounds of the invention and that of the corresponding known racemic compounds closest from WO2012126932 and WO2018202535 were compared under the above-specified conditions by the pre-emergence and post-emergence method. The example numbers given in the tables relate to the compounds disclosed in the respective documents.”

STEME [11] = assay: Pre-emergence herbicidal action; type: in vivo, Stellaria media; details: comparative experiment
Source text: as §2

CYPES [12] = assay: Post-emergence herbicidal action; type: in vivo, Cyperus esculentus; details: 20 g a.i./ha, comparative experiment
Experimental: as §1, with “The example numbers given in the tables relate to the compounds disclosed in the respective documents.” left out

MATIN [13] = assay: Pre-emergence herbicidal action; type: in vivo, Matricaria inodora; details: for Pre-emergence action against MATIN: scored after 3 weeks
Source text: as §2

ECHCG [14] = assay: Pre-emergence herbicidal action; type: in vivo, Echinochloa crus-galli; details: scored after 3 weeks
Source text: as §2, with “percent.” for “percent. In the experiments that follow, the herbicidal action of the compounds of the invention and that of the corresponding known racemic compounds closest from WO2012126932 and WO2018202535 were compared under the above-specified conditions by the pre-emergence and post-emergence method. The example numbers given in the tables relate to the compounds disclosed in the respective documents.”

CYPES [15] = assay: Pre-emergence herbicidal action; type: in vivo, Cyperus esculentus; details: 20 g a.i./ha, comparative experiment
Source text: as §2

MATIN [16] = assay: Post-emergence herbicidal action; type: in vivo, Matricaria inodora; details: assessed after about 3 weeks
Experimental: as §1, with “percent.” for “percent. In the experiments that follow, the herbicidal action of the compounds of the invention and that of the corresponding known racemic compounds closest from WO2012126932 and WO2018202535 were compared under the above-specified conditions by the pre-emergence and post-emergence method. The example numbers given in the tables relate to the compounds disclosed in the respective documents.”

POLCO = assay: Pre-emergence herbicidal action; type: in vivo, Polygonum convolvulus; details: 320 g a.i./ha, comparative experiment
Source text: as §2

VERPE [17] = assay: Pre-emergence herbicidal action; type: in vivo, Veronica persica; details: for Herbicidal action against VERPE: comparative experiment; for Pre-emergence action against VERPE: scored after 3 weeks
Source text: as §2

VERPE [18] = assay: Post-emergence herbicidal action; type: in vivo, Veronica persica
Experimental: as §1

[19] = 20 g a.i./ha, comparative experiment

SMILES: Cc1nnc(NC(=O)c2ccc(C(F)F)c([S+](C)[O-])c2Cl)o1 (racemic) [7-48 from WO2018202535, 2-chloro-N-(5-methyl-1,3,4-oxadiazol-2-yl)-3-[(rac)-methylsulfinyl]-4-(difluoromethyl)benzamide, reference compound]
- Herbicidal action against SETVI (SETVI [1]): 80%
- Herbicidal action against ECHCG (ECHCG [2]; [19]): 80%
- Damage to GLXMA (GLXMA): 60%
- Damage to ZEAMX (ZEAMX; 80 g a.i./ha): 50%
- Herbicidal action against VIOTR (VIOTR [3]; 5 g a.i./ha): 60%
- Herbicidal action against VIOTR (VIOTR [3]; 20 g a.i./ha): 80%
- Damage to BRSNW (BRSNW): 80%
- Damage to TRZAS (TRZAS): 40%

SMILES: Cc1nnc(NC(=O)c2ccc(C(F)(F)F)c([S+](C)[O-])c2Cl)o1 (stereo in doubt) [Example I-5, 2-chloro-N-(5-methyl-1,3,4-oxadiazol-2-yl)-3-[(S)-methylsulfinyl]-4-(trifluoromethyl)benzamide]
- Herbicidal action against ALOMY (ALOMY; [19]): 60%
- Pre-emergence action against ALOMY (ALOMY; 80 g/ha, scored after 3 weeks): 80%
- Herbicidal action against SETVI (SETVI [1]): 100%
- Post-emergence action against SETVI (SETVI [1]; 5 g/ha): 80%
- Post-emergence action against SETVI (SETVI [1]; 20 g/ha): 100%
- Herbicidal action against AVEFA (AVEFA; [19]): 90%
- Pre-emergence action against AVEFA (AVEFA; 80 g/ha, scored after 3 weeks): 80%
- Pre-emergence action against PHBPU (PHBPU [4]): 100%
- Herbicidal action against STEME (STEME [5]): 80%
- Pre-emergence action against VIOTR (VIOTR [6]): 100%
- Post-emergence action against ECHCG (ECHCG [2]; 5 g/ha): 90%
- Post-emergence action against ECHCG (ECHCG [2]; 20 g/ha): 100%
- Post-emergence action against AMARE (AMARE [7]; 5 g/ha): 100%
- Post-emergence action against AMARE (AMARE [7]; 20 g/ha): 100%
- Herbicidal action against ZEAMX (ZEAMX; 320 g a.i./ha): 40%
- Post-emergence action against PHBPU (PHBPU [8]): 90%
- Pre-emergence action against SETVI (SETVI [9]; 5 g/ha): 80%
- Herbicidal action against SETVI (SETVI [9]; [19]): 100%
- Pre-emergence action against SETVI (SETVI [9]; 20 g/ha): 100%
- Pre-emergence action against SETVI (SETVI [9]; 80 g/ha): 100%
- Pre-emergence action against AMARE (AMARE [10]; 20 g/ha): 90%
- Pre-emergence action against AMARE (AMARE [10]; 80 g/ha): 100%
- Post-emergence action against VIOTR (VIOTR [3]; 5 g/ha): 100%
- Post-emergence action against VIOTR (VIOTR [3]; 20 g/ha): 100%
- Herbicidal action against STEME (STEME [11]; 20 g a.i./ha): 100%
- Herbicidal action against STEME (STEME [11]; 80 g a.i./ha): 100%
- Herbicidal action against STEME (STEME [11]; 320 g a.i./ha): 100%
- Herbicidal action against CYPES (CYPES [12]): 80%
- Herbicidal action against MATIN (MATIN [13]; [19]): 90%
- Pre-emergence action against MATIN (MATIN [13]; 20 g/ha): 80%
- Pre-emergence action against MATIN (MATIN [13]; 80 g/ha): 100%
- Pre-emergence action against ECHCG (ECHCG [14]; 20 g/ha): 100%
- Pre-emergence action against ECHCG (ECHCG [14]; 80 g/ha): 100%
- Herbicidal action against CYPES (CYPES [15]): 90%
- Post-emergence action against MATIN (MATIN [16]; 5 g/ha): 80%
- Post-emergence action against MATIN (MATIN [16]; 20 g/ha): 90%
- Herbicidal action against POLCO (POLCO): 80%
- Herbicidal action against VERPE (VERPE [17]; 20 g a.i./ha): 30%
- Pre-emergence action against VERPE (VERPE [17]; 20 g/ha): 80%
- Herbicidal action against VERPE (VERPE [17]; 80 g a.i./ha): 100%
- Pre-emergence action against VERPE (VERPE [17]; 80 g/ha): 100%
- Herbicidal action against VERPE (VERPE [18]; 5 g a.i./ha, comparative experiment): 40%
- Post-emergence action against VERPE (VERPE [18]; 20 g/ha, assessed after about 3 weeks): 90%
